Literature values, collected in PubChem BioAssay AID1259409 (Chemical Carcinogenesis Research Information System (CCRIS), 2018).

System: rodent chemically induced tumor inhibition, incidence and multiplicity
Assay: CCRIS tumor inhibitor studies
Details: for outcome: Carcinogen: 2-Amino-1-methyl-6-phenylimidazo[4,5-b]pyridine (105650-23-5), Dose [Inhibitor]: 0.2% in drinking water for 4 wk (Study duration 48 wk), Route [Inhibitor]: Oral, Species: Rat, Strain/Sex: Sprague Dawley/Female, Dose [Carcinogen]: 100 mg/kg twice a wk for 4 wk (Test material solvent: corn oil), Promoter: None used

## CS(=O)(=O)Nc1ccc([N+](=O)[O-])cc1OC1CCCCC1
Carcinogen: 4-METHYLNITROSAMINO)-1-(3-PYRIDYL)-1-BUTANONE, 64091-91-4, Dose [Inhibitor]: 0, 7 MMOL/KG BW/D IN DIET FOR DURATION OF STUDY BEGINNING 2 WK PRIOR TO CARCINOGEN TREATMENT (STUDY DURATION: 25 WK), Route [Inhibitor]: ORAL, Species: MOUSE, Strain/Sex: STRAIN-A/FEMALE, Target Tissue: Type of Lesion: LUNG: TUMOR, Dose [Carcinogen]: 2.2 MMOL/KG BW (TOTAL DOSE) ADMINISTERED IN DRINKING WATER FOR 7 WK, Promoter: NONE USED
  tumour outcome (control, treated, inhibition, significance): 29/29 (100%), 25/25 (100%), 0%, not significant

## O=NO
Carcinogen: 2-AMINO-1-METHYL-6-PHENYL-1H-IMIDAZO[4,5-B]PYRID INE, 105650-23-5, Dose [Inhibitor]: 0, 0.2% IN DRINKING WATER FOR 4 WK BEGINNING AT 6 WK OF AGE (STUDY DURATION: 48 WK), Route [Inhibitor]: ORAL, Species: RAT, Strain/Sex: SPRAGUE-DAWLEY/FEMALE, Target Tissue: Type of Lesion: MAMMARY GLAND: ADENOCARCINOMA, Dose [Carcinogen]: 100 MG/KG BW 2/WK FOR 4 WK CONCURRENT WITH INHIBITOR, Promoter: NONE USED
  tumour outcome (control, treated, inhibition, significance): 11/20 (55%), 6/10 (60%), -9%, not significant
Carcinogen: 2-AMINO-1-METHYL-6-PHENYL-1H-IMIDAZO[4,5-B]PYRID INE, 105650-23-5, Dose [Inhibitor]: 0, 0.2% IN DRINKING WATER FOR 4 WK BEGINNING AT 6 WK OF AGE (STUDY DURATION: 48 WK), Route [Inhibitor]: ORAL, Species: RAT, Strain/Sex: SPRAGUE-DAWLEY/FEMALE, Target Tissue: Type of Lesion: MAMMARY GLAND: FIBROADENOMA, Dose [Carcinogen]: 100 MG/KG BW 2/WK FOR 4 WK CONCURRENT WITH INHIBITOR, Promoter: NONE USED
  tumour outcome (control, treated, inhibition, significance): 3/20 (15%), 2/10 (20%), -33%, not significant
Target Tissue: Type of Lesion: Mammary gland: Carcinoma
  outcome: 11/20 (55%), 6/10 (60%), not significant
Target Tissue: Type of Lesion: Mammary gland: Fibroadenoma
  outcome: 3/20 (15%), 2/10 (20%), not significant

## CC(C)NCC(O)c1ccc(O)c(O)c1 (configuration not stated)
Carcinogen: 1,2-DIMETHYLHYDRAZINE DIHYDROCHLORIDE, 306-37-6, Dose [Inhibitor]: 0, 150 MG/KG BW 1/WK FOR 8 WK BEGINNING 20 D POST CARCINOGEN TREATMENT (STUDY DURATION: 26.5 WK), Route [Inhibitor]: INTRAPERITONEAL, Species: MOUSE, Strain/Sex: CF-1/FEMALE, Target Tissue: Type of Lesion: COLON: TUMOR, Dose [Carcinogen]: 20 MG/KG BW 1/WK FOR 8 WK, Promoter: NONE USED
  tumour outcome (control, treated, inhibition, significance): 10/12 (83%), 10/12 (83%), 0%, not significant
Carcinogen: 1,2-DIMETHYLHYDRAZINE DIHYDROCHLORIDE, 306-37-6, Dose [Inhibitor]: 0, 150 MG/KG BW 1/WK FOR 12 WK ADMINISTERED 39 HR POST EACH CARCINOGEN DOSE (STUDY DURATION: 28 WK), Route [Inhibitor]: INTRAPERITONEAL, Species: MOUSE, Strain/Sex: CF-1/FEMALE, Target Tissue: Type of Lesion: COLON: TUMOR, Dose [Carcinogen]: 20 MG/KG BW 1/WK FOR 12 WK, Promoter: NONE USED
  tumour outcome (control, treated, inhibition, significance): 12/12 (100%), 9/9 (100%), 0%, not significant
Carcinogen: 1,2-DIMETHYLHYDRAZINE DIHYDROCHLORIDE, 306-37-6, Dose [Inhibitor]: 0, 150 MG/KG BW 2/WK FOR 6 WK ADMINISTERED 15 AND 39 HR AFTER EACH CARCINOGEN DOSE (STUDY DURATION: 30 WK), Route [Inhibitor]: INTRAPERITONEAL, Species: MOUSE, Strain/Sex: CF-1/FEMALE, Target Tissue: Type of Lesion: COLON: TUMOR, Dose [Carcinogen]: 20 MG/KG BW 1/WK FOR 6 WK, Promoter: NONE USED
  tumour outcome (control, treated, inhibition, significance): 4/9 (44%), 0/8 (0%), 100%, not calculated
Carcinogen: 1,2-DIMETHYLHYDRAZINE DIHYDROCHLORIDE, 306-37-6, Dose [Inhibitor]: 0, 150 MG/KG BW 2/WK FOR 12 WK ADMINISTERED 15 AND 39 HR POST EACH CARCINOGEN DOSE (STUDY DURATION: 28 WK), Route [Inhibitor]: INTRAPERITONEAL, Species: MOUSE, Strain/Sex: CF-1/FEMALE, Target Tissue: Type of Lesion: COLON: TUMOR, Dose [Carcinogen]: 20 MG/KB BW 1/WK FOR 12 WK, Promoter: NONE USED
  tumour outcome (control, treated, inhibition, significance): 12/12 (100%), 8/8 (100%), 0%, not significant
Carcinogen: AZOXYMETHANE, 25843-45-2, Dose [Inhibitor]: 0.5 MG/KG BW 1/2D IN OLIVE OIL BEGINNING 3 WK PRIOR TO FIRST CARCINOGEN DOSE (STUDY DURATION: 40 WK), Route [Inhibitor]: SUBCUTANEOUS, Species: RAT, Strain/Sex: WISTAR/MALE, Target Tissue: Type of Lesion: COLON: TUMOR, Dose [Carcinogen]: 7.4 MG/KG BW IN 0.9% SALINE SOLUTION 1/WK FOR 10 WK, Promoter: NONE USED
  tumour outcome (control, treated, inhibition, significance): 18/20 (90%), 10/18 (56%), 38%, p<0.05
Carcinogen: N-METHYL-N'-NITRO-N-NITROSOGUANIDINE, 70-25-7, Dose [Inhibitor]: 0, 0.1 MG/KG IN OLIVE OIL SUSPENSION 1/D BEGINNING 1 WK POST LAST CARCINOGEN DOSE AND CONTINUING FOR DURATION OF STUDY (, Species: RAT, Strain/Sex: WISTAR/MALE, Target Tissue: Type of Lesion: GLANDULAR STOMACH: ADENOCARCINOMA, Dose [Carcinogen]: 50 UG/ML IN DRINKING WATER FOR 25 WK, Promoter: NONE USED
  tumour outcome (control, treated, inhibition, significance): 15/18 (83%), 9/20 (45%), 46%, p<0.05

## C=C/C(C)=C/C=C/C(C)=C/C=C1/C(C)=CCCC1(C)C
Carcinogen: N-METHYL-N-NITROSOUREA, 684-93-5, Dose [Inhibitor]: 0, 67 MG/KG DIET FOR FOR 88 D BEGINNING 2 D POST CARCINOGEN DOSE (STUDY DURATION: 90 D), Route [Inhibitor]: ORAL, Species: RAT, Strain/Sex: SPRAGUE-DAWLEY/FEMALE, Target Tissue: Type of Lesion: MAMMARY GLAND: ADENOCARCINOMA, Dose [Carcinogen]: 45 MG/KG BW ONCE, Promoter: NONE USED
  tumour outcome (control, treated, inhibition, significance): 100%, 93%, 7%, not significant
Carcinogen: N-METHYL-N-NITROSOUREA, 684-93-5, Dose [Inhibitor]: 0, 134 MG/KG DIET FOR 88 D BEGINNING 2 D POST CARCINOGEN DOSE (STUDY DURATION: 90 D), Route [Inhibitor]: ORAL, Species: RAT, Strain/Sex: SPRAGUE-DAWLEY/FEMALE, Target Tissue: Type of Lesion: MAMMARY GLAND: ADENOCARCINOMA, Dose [Carcinogen]: 45 MG/KG BW ONCE, Promoter: NONE USED
  tumour outcome (control, treated, inhibition, significance): 100%, 100%, 0%, not significant
Carcinogen: N-METHYL-N-NITROSOUREA, 684-93-5, Dose [Inhibitor]: 0, 268 MG/KG DIET FOR 88 D BEGINNING 2 D POST CARCINOGEN DOSE (STUDY DURATION: 90 D), Route [Inhibitor]: ORAL, Species: RAT, Strain/Sex: SPRAGUE-DAWLEY/FEMALE, Target Tissue: Type of Lesion: MAMMARY GLAND: ADENOCARCINOMA, Dose [Carcinogen]: 45 MG/KG BW ONCE, Promoter: NONE USED
  tumour outcome (control, treated, inhibition, significance): 100%, 87%, 13%, p<0.05
Carcinogen: N-METHYL-N-NITROSOUREA, 684-93-5, Dose [Inhibitor]: 0, 536 MG/KG DIET FOR 88 D BEGINNING 2 D POST CARCINOGEN DOSE (STUDY DURATION: 90 D), Route [Inhibitor]: ORAL, Species: RAT, Strain/Sex: SPRAGUE-DAWLEY/FEMALE, Target Tissue: Type of Lesion: MAMMARY GLAND: ADENOCARCINOMA, Dose [Carcinogen]: 45 MG/KG BW ONCE, Promoter: NONE USED
  tumour outcome (control, treated, inhibition, significance): 100%, 80%, 20%, p<0.05

## CC(C)[C@@H](C)/C=C/[C@@H](C)[C@H]1CC[C@H]2C3=CC=C4C[C@@H](O)CC[C@]4(C)[C@H]3CC[C@]12C
Carcinogen: 7,12-DIMETHYLBENZ[A]ANTHRACENE, 57-97-6, Dose [Inhibitor]: 0, 2 UMOL IN 100 µL ACETONE:DIMETHYLSULFOXIDE (9:1) 2/WK FOR 18 WK APPLIED 30 MIN PRIOR TO EACH PROMOTER DOSE (STUDY DUR, Route [Inhibitor]: DERMAL, Species: MOUSE, Strain/Sex: ICR/FEMALE, Target Tissue: Type of Lesion: SKIN: PAPILLOMA, Dose [Carcinogen]: 50 UG IN 100 µL ACETONE ONCE, Promoter: 12-O-TETRADECANOYLPHORBOL-13-ACETATE, 16561-29-8
  tumour outcome (control, treated, inhibition, significance): 100%, 40%, 60%, not calculated

## CC(C)CCC[C@@H](C)[C@H]1CC[C@H]2[C@@H]3CC=C4C[C@@H](OS(=O)(=O)O)CC[C@]4(C)[C@H]3CC[C@]12C
Carcinogen: 7,12-DIMETHYLBENZ[A]ANTHRACENE, 57-97-6, Dose [Inhibitor]: 0, 400 UG IN 0.2 ML METHANOL:ACETONE (1:4) APPLIED 10 MIN PRIOR TO EACH PROMOTER DOSE FOR 20 WK (STUDY DURATION: 20 WK), Route [Inhibitor]: DERMAL, Species: MOUSE, Strain/Sex: CD-1/FEMALE, Target Tissue: Type of Lesion: SKIN: TUMOR, Dose [Carcinogen]: 100 UG ONCE, Promoter: 12-O-TETRADECANOYLPHORBOL-13-ACETATE, 16561-29-8, MEZEREIN, 34807-41-5, Promoter: 12-O-TETRADECANOYLPHORBOL-13-ACETATE, 16561-29-8, MEZEREIN, 34807-41-5
  tumour outcome (control, treated, inhibition, significance): 90%, 40%, 56%, not calculated
